Assay: Transformation into the amino form after incubation in mouse plasma at 37° C. (Experiment 1)
Format: in vitro ADME
Conditions: 10 mg equivalent/ml
Protocol: The lyophilized 7β-[2(Z)-ethoxyimino-2-(5-phosphonoamino-1,2,4-thiadiazol-3-yl)acetamido]-3-[4-(1-methyl-4-pyridinio)-2-thiazolylthio]-3-cephem-4-carboxylate obtained in Working Example 6, was dissolved in mouse plasma to prepare 10 mg equivalent/ml solution. After incubation at 37° C., the transformation rate into 7β-[2(Z)-ethoxyimino-2-(5-amino-1,2,4-thiadiazol-3-yl)acetamido]-3-[4-(1-methyl-4-pyridinio)-2-thiazolylthio]-3-cephem-4-carboxylate (amino form) was measured. The transformation rates in 30 minutes and 1 hour were as follows: […]

## CCO/N=C(\C(=O)N[C@@H]1C(=O)N2C(C(=O)[O-])=C(Sc3nc(-c4cc[n+](C)cc4)cs3)CS[C@H]12)c1nsc(NP(=O)(O)O)n1 [Working Example 6, 7β-[2(Z)-Ethoxyimino-2-(5-phosphonoamino-1,2,4-thiadiazol-3-yl)acetamido]-3-[4-(1-methyl-4-pyridinio)-2-thiazolylthio]-3-cephem-4-carboxylate]
30 minutes
  transformation rate into amino form: 35%
1 hour
  transformation rate into amino form: 62%

Reference: patent US6417175B1, “Phosphonocephem derivatives, process for the preparation of the same, and use thereof” (Takeda Chemical Industries, Ltd., priority 1997, dated 2002)
